{"source": "ChEMBL document CHEMBL5723582", "about": "“Data for DCP probe T-10430” (2024)", "conditions_in_all_cases": "Compound concentration 1.0 uM", "key": {"[1]": {"target": "Hydroxycarboxylic acid receptor 2 (Homo sapiens) (UniProt Q8TDS4)", "assay": "RLU of HCA2 at 1.0 µM in the Aequorin PRESTO-Tango GPCRome screen"}, "[2]": {"target": "G-protein coupled receptor 78 (Homo sapiens) (UniProt Q96P69)", "assay": "RLU of GPR78 at 1.0 µM in the […] PRESTO-Tango GPCRome screen"}, "[3]": {"target": "Trace amine-associated receptor 8 (Homo sapiens) (UniProt Q969N4)", "assay": "RLU of TAAR8 at 1.0 µM in the […] PRESTO-Tango GPCRome screen"}, "[4]": {"target": "Probable G-protein coupled receptor 173 (Homo sapiens) (UniProt Q9NS66)", "sequence (Q9NS66 whole entry)": "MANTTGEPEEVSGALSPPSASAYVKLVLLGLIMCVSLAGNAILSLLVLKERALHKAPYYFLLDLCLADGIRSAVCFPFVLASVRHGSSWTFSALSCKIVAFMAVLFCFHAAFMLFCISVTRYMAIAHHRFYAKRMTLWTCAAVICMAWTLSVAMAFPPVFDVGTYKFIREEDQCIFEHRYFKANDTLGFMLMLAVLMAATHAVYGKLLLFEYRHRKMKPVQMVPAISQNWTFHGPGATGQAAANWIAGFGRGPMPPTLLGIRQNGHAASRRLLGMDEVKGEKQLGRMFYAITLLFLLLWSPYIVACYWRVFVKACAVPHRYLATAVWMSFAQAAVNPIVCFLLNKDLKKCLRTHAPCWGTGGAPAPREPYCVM", "assay": "RLU of GPR173 at 1.0 µM in the […] PRESTO-Tango GPCRome screen"}, "[5]": {"target": "Urotensin-2 receptor (Homo sapiens) (UniProt Q9UKP6)", "sequence (Q9UKP6 whole entry)": "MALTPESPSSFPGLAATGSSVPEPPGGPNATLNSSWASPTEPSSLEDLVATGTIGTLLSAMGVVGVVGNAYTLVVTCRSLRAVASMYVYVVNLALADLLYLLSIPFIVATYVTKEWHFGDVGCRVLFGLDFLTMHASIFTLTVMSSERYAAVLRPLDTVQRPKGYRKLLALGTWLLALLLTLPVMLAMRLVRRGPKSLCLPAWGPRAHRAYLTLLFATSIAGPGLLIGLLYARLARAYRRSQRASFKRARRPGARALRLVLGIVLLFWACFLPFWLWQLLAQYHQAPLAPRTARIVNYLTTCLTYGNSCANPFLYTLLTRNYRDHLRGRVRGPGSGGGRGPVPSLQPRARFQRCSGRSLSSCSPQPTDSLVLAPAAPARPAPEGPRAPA", "assay": "RLU of UTS2R at 1.0 µM in the […] PRESTO-Tango GPCRome screen"}, "[6]": {"target": "Neuromedin-U receptor 2 (Homo sapiens) (UniProt Q9GZQ4)", "sequence (Q9GZQ4 whole entry)": "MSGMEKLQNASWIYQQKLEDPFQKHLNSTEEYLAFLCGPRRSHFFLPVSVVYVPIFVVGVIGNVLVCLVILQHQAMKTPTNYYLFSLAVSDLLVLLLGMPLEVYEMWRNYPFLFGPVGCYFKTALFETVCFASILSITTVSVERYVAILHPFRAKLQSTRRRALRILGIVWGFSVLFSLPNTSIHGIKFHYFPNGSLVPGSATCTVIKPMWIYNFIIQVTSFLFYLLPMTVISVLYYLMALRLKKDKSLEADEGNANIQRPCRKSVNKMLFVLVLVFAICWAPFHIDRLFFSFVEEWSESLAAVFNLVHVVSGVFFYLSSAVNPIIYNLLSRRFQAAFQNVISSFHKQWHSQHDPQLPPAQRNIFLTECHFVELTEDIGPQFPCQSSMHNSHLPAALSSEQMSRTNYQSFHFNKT", "assay": "RLU of NMUR2 at 1.0 µM in the […] PRESTO-Tango GPCRome screen"}, "[7]": {"target": "Neuromedin-K receptor (Homo sapiens) (UniProt P29371)", "assay": "RLU of TACR3 at 1.0 µM in the […] PRESTO-Tango GPCRome screen"}, "[8]": {"target": "Substance-K receptor (Homo sapiens) (UniProt P21452)", "assay": "RLU of TACR2 at 1.0 µM in the […] PRESTO-Tango GPCRome screen"}, "[9]": {"target": "Neuropeptide FF receptor 2 (Homo sapiens) (UniProt Q9Y5X5)", "assay": "RLU of NPFF2 at 1.0 µM in the […] PRESTO-Tango GPCRome screen"}, "[10]": {"target": "Probable G-protein coupled receptor 153 (Homo sapiens) (UniProt Q6NV75)", "sequence (Q6NV75 whole entry)": "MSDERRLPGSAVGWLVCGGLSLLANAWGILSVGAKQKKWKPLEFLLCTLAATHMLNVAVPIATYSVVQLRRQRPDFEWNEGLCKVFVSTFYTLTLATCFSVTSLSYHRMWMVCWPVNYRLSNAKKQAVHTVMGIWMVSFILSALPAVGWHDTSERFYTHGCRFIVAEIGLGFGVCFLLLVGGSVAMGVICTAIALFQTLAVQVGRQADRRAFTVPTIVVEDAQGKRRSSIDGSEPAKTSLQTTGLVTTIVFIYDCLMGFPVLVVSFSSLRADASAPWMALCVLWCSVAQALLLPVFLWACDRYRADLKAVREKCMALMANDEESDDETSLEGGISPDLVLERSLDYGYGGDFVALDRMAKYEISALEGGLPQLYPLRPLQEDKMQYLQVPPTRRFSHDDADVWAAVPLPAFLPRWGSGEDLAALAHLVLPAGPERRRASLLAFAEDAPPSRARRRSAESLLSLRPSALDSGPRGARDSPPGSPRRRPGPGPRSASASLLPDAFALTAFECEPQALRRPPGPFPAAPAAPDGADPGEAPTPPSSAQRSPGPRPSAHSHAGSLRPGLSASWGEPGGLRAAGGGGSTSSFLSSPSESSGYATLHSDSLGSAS", "assay": "RLU of GPR153 at 1.0 µM in the […] PRESTO-Tango GPCRome screen"}, "[11]": {"target": "Prokineticin receptor 1 (Homo sapiens) (UniProt Q8TCW9)", "assay": "RLU of PK1 at 1.0 µM in the […] PRESTO-Tango GPCRome screen"}, "[12]": {"target": "Prostaglandin E2 receptor EP4 subtype (Homo sapiens) (UniProt P35408)", "assay": "RLU of PTGER4 at 1.0 µM in the […] PRESTO-Tango GPCRome screen"}, "[13]": {"target": "Trace amine-associated receptor 2 (Homo sapiens) (UniProt Q9P1P5)", "assay": "RLU of TAAR2 at 1.0 µM in the […] PRESTO-Tango GPCRome screen"}, "[14]": {"target": "G-protein coupled estrogen receptor 1 (Homo sapiens) (UniProt Q99527)", "assay": "RLU of GPER at 1.0 µM in the […] PRESTO-Tango GPCRome screen"}, "[15]": {"target": "Corticotropin-releasing factor receptor 1 (Homo sapiens) (UniProt P34998)", "sequence (P34998 whole entry)": "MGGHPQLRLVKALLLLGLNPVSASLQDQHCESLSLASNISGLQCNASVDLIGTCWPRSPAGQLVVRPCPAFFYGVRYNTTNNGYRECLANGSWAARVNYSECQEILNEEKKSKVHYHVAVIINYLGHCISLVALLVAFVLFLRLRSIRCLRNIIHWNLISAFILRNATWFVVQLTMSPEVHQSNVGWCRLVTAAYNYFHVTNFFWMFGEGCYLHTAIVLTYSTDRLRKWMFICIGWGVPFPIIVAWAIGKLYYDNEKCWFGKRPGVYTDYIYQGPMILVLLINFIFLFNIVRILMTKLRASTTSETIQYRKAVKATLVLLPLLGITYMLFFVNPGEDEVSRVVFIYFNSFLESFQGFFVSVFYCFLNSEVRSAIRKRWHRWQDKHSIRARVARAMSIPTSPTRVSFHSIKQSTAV", "assay": "RLU of CRHR1 at 1.0 µM in the […] PRESTO-Tango GPCRome screen"}, "[16]": {"target": "Melanin-concentrating hormone receptor 2 (Homo sapiens) (UniProt Q969V1)", "assay": "RLU of MCHR2 at 1.0 µM in the […] PRESTO-Tango GPCRome screen"}, "[17]": {"target": "Adhesion G protein-coupled receptor D2 (Homo sapiens) (UniProt Q7Z7M1)", "assay": "RLU of GPR144 at 1.0 µM in the […] PRESTO-Tango GPCRome screen"}, "[18]": {"target": "Metabotropic glutamate receptor 6 (Homo sapiens) (UniProt O15303)", "assay": "RLU of GRM6 at 1.0 µM in the Aequorin PRESTO-Tango GPCRome screen"}, "[19]": {"target": "Probable G-protein coupled receptor 75 (Homo sapiens) (UniProt O95800)", "assay": "RLU of GPR75 at 1.0 µM in the […] PRESTO-Tango GPCRome screen"}, "[20]": {"target": "G-protein coupled receptor family C group 5 member C (Homo sapiens) (UniProt Q9NQ84)", "sequence (Q9NQ84 whole entry)": "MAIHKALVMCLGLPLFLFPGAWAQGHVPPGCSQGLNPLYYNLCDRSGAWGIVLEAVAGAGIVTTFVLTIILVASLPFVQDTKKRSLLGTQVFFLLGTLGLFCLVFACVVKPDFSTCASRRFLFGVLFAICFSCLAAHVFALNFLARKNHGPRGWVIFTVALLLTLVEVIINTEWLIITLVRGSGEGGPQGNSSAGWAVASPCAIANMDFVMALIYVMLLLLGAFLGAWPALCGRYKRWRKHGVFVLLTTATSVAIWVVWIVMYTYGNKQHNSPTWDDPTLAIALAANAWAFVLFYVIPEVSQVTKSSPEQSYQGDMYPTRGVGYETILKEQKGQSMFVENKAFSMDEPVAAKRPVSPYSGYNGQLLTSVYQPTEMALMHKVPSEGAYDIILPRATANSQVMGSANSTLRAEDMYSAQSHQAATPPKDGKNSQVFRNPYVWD", "assay": "RLU of GPRC5C at 1.0 µM in the […] PRESTO-Tango GPCRome screen"}, "[21]": {"target": "C-C chemokine receptor type 5 (Homo sapiens) (UniProt P51681)", "assay": "RLU of CCR5 at 1.0 µM in the […] PRESTO-Tango GPCRome screen"}, "[22]": {"target": "5-hydroxytryptamine receptor 2C (Homo sapiens) (UniProt P28335)", "sequence (P28335 whole entry)": "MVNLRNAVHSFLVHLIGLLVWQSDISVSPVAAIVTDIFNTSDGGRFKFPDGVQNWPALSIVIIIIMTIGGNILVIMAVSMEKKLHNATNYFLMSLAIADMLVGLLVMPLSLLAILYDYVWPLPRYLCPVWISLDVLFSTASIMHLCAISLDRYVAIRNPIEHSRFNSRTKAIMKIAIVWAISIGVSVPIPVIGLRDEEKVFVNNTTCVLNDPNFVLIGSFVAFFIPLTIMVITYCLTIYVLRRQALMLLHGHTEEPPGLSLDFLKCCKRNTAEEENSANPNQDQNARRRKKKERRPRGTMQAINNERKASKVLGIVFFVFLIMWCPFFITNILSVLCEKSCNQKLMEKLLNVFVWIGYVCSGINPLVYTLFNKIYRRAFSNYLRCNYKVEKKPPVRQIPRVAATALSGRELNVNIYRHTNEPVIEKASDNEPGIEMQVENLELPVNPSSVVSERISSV", "assay": "RLU of HTR2C at 1.0 µM in the […] PRESTO-Tango GPCRome screen"}, "[23]": {"target": "Sphingosine 1-phosphate receptor 3 (Homo sapiens) (UniProt Q99500)", "assay": "RLU of S1PR3 at 1.0 µM in the […] PRESTO-Tango GPCRome screen"}, "[24]": {"target": "Relaxin-3 receptor 1 (Homo sapiens) (UniProt Q9NSD7)", "sequence (Q9NSD7 whole entry)": "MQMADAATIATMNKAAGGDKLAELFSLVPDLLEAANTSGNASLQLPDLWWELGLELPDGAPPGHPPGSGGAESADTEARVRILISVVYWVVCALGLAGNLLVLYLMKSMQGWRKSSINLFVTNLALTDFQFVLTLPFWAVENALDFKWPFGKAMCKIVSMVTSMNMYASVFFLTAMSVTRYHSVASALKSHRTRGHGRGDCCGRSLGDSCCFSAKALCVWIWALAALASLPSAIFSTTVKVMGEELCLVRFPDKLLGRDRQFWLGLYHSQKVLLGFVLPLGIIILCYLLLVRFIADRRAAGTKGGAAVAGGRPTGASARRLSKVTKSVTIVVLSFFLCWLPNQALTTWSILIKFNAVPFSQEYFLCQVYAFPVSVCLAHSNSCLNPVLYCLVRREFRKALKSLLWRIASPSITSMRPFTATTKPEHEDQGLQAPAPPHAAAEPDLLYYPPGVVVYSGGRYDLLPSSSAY", "assay": "RLU of RXFP3 at 1.0 µM in the […] PRESTO-Tango GPCRome screen"}, "[25]": {"target": "Relaxin-3 receptor 2 (Homo sapiens) (UniProt Q8TDU9)", "assay": "RLU of RXFP4 at 1.0 µM in the […] PRESTO-Tango GPCRome screen"}, "[26]": {"target": "Somatostatin receptor type 3 (Homo sapiens) (UniProt P32745)", "assay": "RLU of SSTR3 at 1.0 µM in the […] PRESTO-Tango GPCRome screen"}, "[27]": {"target": "C5a anaphylatoxin chemotactic receptor 2 (Homo sapiens) (UniProt Q9P296)", "sequence (Q9P296 whole entry)": "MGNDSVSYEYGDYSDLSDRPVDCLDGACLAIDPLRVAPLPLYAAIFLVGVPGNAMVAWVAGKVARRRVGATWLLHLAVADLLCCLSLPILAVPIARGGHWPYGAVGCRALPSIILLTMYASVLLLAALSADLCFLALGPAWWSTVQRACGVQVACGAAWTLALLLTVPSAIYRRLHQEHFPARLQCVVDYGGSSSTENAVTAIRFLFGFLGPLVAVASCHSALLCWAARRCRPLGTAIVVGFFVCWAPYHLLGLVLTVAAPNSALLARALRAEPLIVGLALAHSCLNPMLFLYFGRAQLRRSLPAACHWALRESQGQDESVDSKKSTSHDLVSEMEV", "assay": "RLU of GPR77 at 1.0 µM in the […] PRESTO-Tango GPCRome screen"}, "[28]": {"target": "C-C chemokine receptor type 8 (Homo sapiens) (UniProt P51685)", "assay": "RLU of CCR8 at 1.0 µM in the […] PRESTO-Tango GPCRome screen"}, "[29]": {"target": "Prolactin-releasing peptide receptor (Homo sapiens) (UniProt P49683)", "sequence (P49683 whole entry)": "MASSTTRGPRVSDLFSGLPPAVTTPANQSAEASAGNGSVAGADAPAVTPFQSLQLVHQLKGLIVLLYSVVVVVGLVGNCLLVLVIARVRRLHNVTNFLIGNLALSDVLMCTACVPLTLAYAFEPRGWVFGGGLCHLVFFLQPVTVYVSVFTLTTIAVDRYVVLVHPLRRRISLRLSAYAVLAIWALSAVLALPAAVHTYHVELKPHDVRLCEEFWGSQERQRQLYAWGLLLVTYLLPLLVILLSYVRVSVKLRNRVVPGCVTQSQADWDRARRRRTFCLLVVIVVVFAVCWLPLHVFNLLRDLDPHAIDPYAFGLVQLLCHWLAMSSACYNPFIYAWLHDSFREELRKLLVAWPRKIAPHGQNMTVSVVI", "assay": "RLU of PRRP at 1.0 µM in the […] PRESTO-Tango GPCRome screen"}, "[30]": {"target": "Metabotropic glutamate receptor 1 (Homo sapiens) (UniProt Q13255)", "assay": "RLU of GRM1 at 1.0 µM in the Aequorin PRESTO-Tango GPCRome screen"}, "[31]": {"target": "Mas-related G-protein coupled receptor member G (Homo sapiens) (UniProt Q86SM5)", "sequence (Q86SM5 whole entry)": "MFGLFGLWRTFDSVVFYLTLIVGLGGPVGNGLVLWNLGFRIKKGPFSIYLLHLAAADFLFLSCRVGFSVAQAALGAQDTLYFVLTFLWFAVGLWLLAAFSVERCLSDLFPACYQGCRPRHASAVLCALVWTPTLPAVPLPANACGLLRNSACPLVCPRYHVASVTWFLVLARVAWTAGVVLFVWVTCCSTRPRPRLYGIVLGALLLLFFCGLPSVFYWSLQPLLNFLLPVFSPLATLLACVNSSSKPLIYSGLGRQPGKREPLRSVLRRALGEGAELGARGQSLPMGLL", "assay": "RLU of MRGPRG at 1.0 µM in the […] PRESTO-Tango GPCRome screen"}, "[32]": {"target": "Growth hormone-releasing hormone receptor (Homo sapiens) (UniProt Q02643)", "assay": "RLU of GHRHR at 1.0 µM in the […] PRESTO-Tango GPCRome screen"}, "[33]": {"target": "Prostaglandin D2 receptor (Homo sapiens) (UniProt Q13258)", "assay": "RLU of PTGDR at 1.0 µM in the […] PRESTO-Tango GPCRome screen"}, "[34]": {"target": "Melanocortin receptor 4 (Homo sapiens) (UniProt P32245)", "sequence (P32245 whole entry)": "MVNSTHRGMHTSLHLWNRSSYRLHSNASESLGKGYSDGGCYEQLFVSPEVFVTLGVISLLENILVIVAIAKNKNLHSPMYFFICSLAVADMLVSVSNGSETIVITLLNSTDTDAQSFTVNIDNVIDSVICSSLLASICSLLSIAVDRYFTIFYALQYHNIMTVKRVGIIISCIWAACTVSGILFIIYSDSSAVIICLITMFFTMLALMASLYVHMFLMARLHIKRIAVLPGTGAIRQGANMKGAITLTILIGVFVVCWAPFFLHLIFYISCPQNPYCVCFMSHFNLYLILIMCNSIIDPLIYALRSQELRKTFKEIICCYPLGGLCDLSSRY", "assay": "RLU of MC4R at 1.0 µM in the […] PRESTO-Tango GPCRome screen"}, "[35]": {"target": "Probable G-protein coupled receptor 150 (Homo sapiens) (UniProt Q8NGU9)", "assay": "RLU of GPR150 at 1.0 µM in the […] PRESTO-Tango GPCRome screen"}}, "data": [{"smiles": "CCCCC(=O)N1CC2(C1)CN(c1ccccc1-c1nnn[nH]1)C2", "values": [{"measurement": "RLU", "setting": "[1]", "result": -133}, {"measurement": "RLU", "setting": "[2]", "result": 5.41}, {"measurement": "RLU", "setting": "[3]", "result": -4860}, {"measurement": "RLU", "setting": "[4]", "result": -36.4}, {"measurement": "RLU", "setting": "[5]", "result": -160}, {"measurement": "RLU", "setting": "[6]", "result": 710}, {"measurement": "RLU", "setting": "[7]", "result": 550}, {"measurement": "RLU", "setting": "[8]", "result": -238}, {"measurement": "RLU", "setting": "[9]", "result": -116}, {"measurement": "RLU", "setting": "[10]", "result": -4690}, {"measurement": "RLU", "setting": "[11]", "result": 10800}, {"measurement": "RLU", "setting": "[12]", "result": 620}, {"measurement": "RLU", "setting": "[13]", "result": 390}, {"measurement": "RLU", "setting": "[14]", "result": -607}, {"measurement": "RLU", "setting": "[15]", "result": 5080}, {"measurement": "RLU", "setting": "[16]", "result": 1.74}, {"measurement": "RLU", "setting": "[17]", "result": 917}, {"measurement": "RLU", "setting": "[18]", "result": -158}, {"measurement": "RLU", "setting": "[19]", "result": 868}, {"measurement": "RLU", "setting": "[20]", "result": 3560}, {"measurement": "RLU", "setting": "[21]", "result": 2710}, {"measurement": "RLU", "setting": "[22]", "result": 1050}, {"measurement": "RLU", "setting": "[23]", "result": -1650}, {"measurement": "RLU", "setting": "[24]", "result": 6610}, {"measurement": "RLU", "setting": "[25]", "result": 68.6}, {"measurement": "RLU", "setting": "[26]", "result": 342}, {"measurement": "RLU", "setting": "[27]", "result": 351}, {"measurement": "RLU", "setting": "[28]", "result": -3270}, {"measurement": "RLU", "setting": "[29]", "result": 4140}, {"measurement": "RLU", "setting": "[30]", "result": -511}, {"measurement": "RLU", "setting": "[31]", "result": -560}, {"measurement": "RLU", "setting": "[32]", "result": -1060}, {"measurement": "RLU", "setting": "[33]", "result": 375}, {"measurement": "RLU", "setting": "[34]", "result": -2110}, {"measurement": "RLU", "setting": "[35]", "result": -1600}]}]}
